Measurements reported in US20070074297A1, “TAAR1 knock out animal” (priority 2005, published 2007).
Several values for one entry are separate records, joined by “and”; a condition that tells them apart may be missing. Equal values may be shown once. Entries after “also recorded” stand apart in the source; their conditions may differ.

Legend:
[1] = system: TAAR1^+/+ and TAAR1^LacZ/LacZ mice; experiment: Locomotor activity after d-amphetamine challenge (Digiscan activity monitor); format: in vivo, mouse; conditions: 2.5 mg/kg i.p.
Experimental: Locomotor activity. A computerized Digiscan 16 Animal Activity Monitoring System (Omnitech Electronics, Colombus, Ohio) was used to quantitate spontaneous locomotor activity. Data were obtained simultaneously from eight Digiscan activity chambers placed in a soundproof room with a 12 hr light/dark cycle. All tests were performed during the light phase (6 a.m. to 6 p.m.). Each activity monitor consisted of a Plexiglas box (20×20×30.5 cm) with sawdust bedding on the floor surrounded by invisible horizontal and vertical infrared sensor beams. The cages were connected to a Digiscan Analyzer linked to a PC that constantly collected the beam status information. With this system, different behavioral parameters could be measured, such as horizontal and vertical activity, total distance travelled (in cm), and stereotypies. The mice were tested via a pseudo-Latin squares design […] with at least a 10-day interval between two consecutive test sessions. […] Locomotor activity was recorded for 90 min starting immediately after the mice were placed in the cages.
Statistics. Behavioral observations were recorded as mean values SE and analyzed with an unpaired t test. Locomotor activity data (total distance) were analyzed with a two-factor (Genotype and Dose) ANOVA with repeated measures. […]

[2] = system: TAAR1^+/+ and TAAR1^LacZ/LacZ mice; experiment: In vivo microdialysis of extracellular biogenic amines in the striatum after d-amphetamine; design: species or system mouse
Experimental: Four months old male mice were used for these experiments. The procedures used for the experiments described in this report received prior approval from the City of Basel Cantonal Animal Protection Committee based on adherence to federal and local regulations on animal maintenance and testing.
Forty-five minutes before anesthesia mice received subcutaneously 0.075 mg/kg of buprenorfine. Mice were then anesthetized with isoflurane and placed in a stereotaxic device equipped with dual manipulators arms and an anesthetic mask. Anesthesia was maintained with isoflurane 0.8-1.2% (v/v; support gas oxygen/air, 2:1). The head was shaved and the skin was cut along the midline to expose the skull. A small bore hole was made in the skull to allow the stereotaxical insertion of the microdialysis probe (vertical probe carrying a 2 mm polyacrilonitrile dialysis membrane; Brains On-line, Groningen, The Netherlands) in the striatum (coordinates: A 0.9 mm, L-1.8 mm, V-4.6 mm). The probe was cemented into place using binary dental cement. Once the cement was firm, the wound was closed with silk thread for suture (Silkam) the animal was removed from the stereotaxic instrument and returned to its cage. At the end of the surgery and 24 hrs later mice were treated with Meloxicam 1 mg/kg sc. The body weight of the animals was measured before the surgery and in the following days to monitor the recovery of the animal from surgery.
All microdialysis experiments were carried out 3-4 days after surgery in awake, freely moving mice. The day of the experiment, the inlet of the implanted dialysis probe was connected to a micro-perfusion pump (CMA/Microdialysis, Sweden) and the outlet was connected to a fraction collector. The microdialysis probe was then perfused with Ringer solution (NaCl 147 mM, KCl 3 mM, CaCl2 1.2 mM, MgC12 1.2 mM) at a constant flow rate of 1.5 μL/min and […] Four samples of dialysates were collected before pharmacological treatment to determine the baseline levels of biogenic amines and their metabolites. Mice were then treated intraperitoneally with 2.5 mg/kg of amphetamine and dialysate samples collected for further 2.5 hrs. Dialysate samples were stored frozen at −80° C. until analysis.
Frozen dialysate samples were shipped in dry ice to Brains On-Line for assay of monoamines and their metabolites. The concentrations of dopamine, DOPAC, serotonin, 5-HIAA and noradrenaline were measured by use an HPLC equipped with an electrochemical detector according to the procedure of van der Vegt et al. (2003).
Concentrations of norepinephrine, dopamine, and serotonin were determined within the same samples by HPLC separation and electrochemical detection. Samples were split into two aliquots; one used for simultaneous analysis of norepinephrine and dopamine, the other for analysis of serotonin.
Aliquots (20 μL) were injected onto the HPLC column by a refrigerated microsampler system, consisting of a syringe pump (Gilson, model 402), a multi-column injector (Gilson, model 233 XL), and a temperature regulator (Gilson, model 832). Chromatographic separation was performed on a reverse-phase 150×2.1 mm (3 μm) C18 Thermo BDS Hypersil column (Keystone Scientific). The mobile phase (isocratic) consisted of a sodium acetate buffer (4.1 g/L Na acetate) with 2.5% v/v methanol, 150 mg/L Titriplex (EDTA), 150 mg/L 1-octanesulfonic acid, and 150 mg/L tetramethylammonium chloride (pH=4.1 adjusted with glacial acetic acid). Mobile phase was run through the system at a flow rate of 0.35 mL/min by an HPLC pump (Shimadzu, model LC-10AD vp).
Norepinephrine and dopamine were detected electrochemically using a potentiostate (Antec Leyden, model Intro) fitted with a glassy carbon electrode set at +500 mV vs. Ag/AgCl (Antec Leyden). Data were analyzed by Chromatography Data System (Shimadzu, class-vp) software. Concentrations of monoamines were quantitated by external standard method. […]

[3] = system: dopaminergic neurons in the VTA; experiment: Slice electrophysiology, spontaneous firing rate in the ventral tegmental area (current clamp); format: cell-based, mouse; conditions: for spike frequency F of dopaminergic neurons: bath application 10 μM
Experimental: Horozontal slices (250 μm thick, VT1000 vibratome, Leica) of the midbrain were prepared from TAAR1 knock-out and littermate wild-type mice 25-60 days of age. Slices were cooled in artificial cerebrospinal fluid (ACSF) containing in mM: 119 NaCl, 2.5 KCl, 1.3 MgCl2, 2.5 CaCl2, 1.0 NaH2PO4, 26.2 NaHCO3 and 11 glucose. Slices were continuously bubbled with 95% O2 and 5% CO2 and transferred after 1 h to the recording chamber superfused (1.5 ml/min) with ACSF at 32-34° C. The VTA was identified as the region medial to the medial terminal nucleus of the accessory optical tract. Visualized whole-cell current-clamp recording techniques were used to measure the spontaneous firing rate and holding currents of neurons. […] Dopaminergic neurons were identified by a large Ih current. The internal solution contained in mM: 140 potassium gluconate, 4 NaCl, 2 MgCl2, 1.1 EGTA, 5 HEPES, 2 Na2ATP, 5 sodium creatine phosphate and 0.6 Na2GTP; the pH was adjusted to 7.3 with KOH. Data were obtained with an Axopatch 200B (Axon Instruments, Union City, Calif., USA), filtered at 2 kHz and digitized at 10 kHz, acquired and analyzed with pClamp9 (Axon Instruments, Union City, Calif., USA). Values are expressed as mean±sem. For statistical comparisons we used the Kolmogorov-Smirnov test. The level of significance was set at P=0.05.

[4] = TAAR1^LacZ/LacZ mice, 2.5 mg/kg i.p.

SMILES	locomotor activity (total distance moved) after d-amphetamine, compared to wild type littermates ([1]; TAAR1^LacZ/LacZ mice, n=12, 2.5 mg/kg)	locomotor activity (total distance moved) after d-amphetamine injection ([1]; wild type (TAAR1^+/+) mice)	amphetamine-triggered increase in extracellular dopamine, TAAR1^LacZ/LacZ relative to TAAR1^+/+ ([2]; 2.5 mg/kg i.p., n=7-8) [fold]	amphetamine-triggered increase in noradrenaline (norepinephrine), TAAR1^LacZ/LacZ relative to wild type ([2]; 2.5 mg/kg i.p., n=7-8, 2.5 mg/kg)	time until DOPAC levels returned to basal levels ([2]; TAAR1^LacZ/LacZ mice) [min]	increase of extracellular dopamine level over basal [2, 4] [fold]	increase of extracellular norepinephrine level over basal [2, 4] [fold]	increase of extracellular serotonin level [2, 4] [fold]	DOPAC level versus wild-type control ([2]; TAAR1^LacZ/LacZ mice, 45 min after administration)	change of extracellular DOPAC level in response to amphetamine ([2]; both TAAR1^LacZ/LacZ and TAAR1^+/+ mice, 2.5 mg/kg i.p.)	change in levels of the 5-HT metabolite 5-HIAA ([2]; both genotypes, 2.5 mg/kg i.p.)	change of extracellular serotonin level ([2]; wild type (TAAR1^+/+) mice, 2.5 mg/kg i.p., 2.5 mg/kg)	spike frequency F of dopaminergic neurons ([3]; TAAR1^+/+ mice, n=19, control 2.1±0.3 Hz, p<0.0001) [Hz]	spike frequency F of dopaminergic neurons ([3]; TAAR1^LacZ/LacZ mice, n=15, control 16.73±1.15 Hz, p>0.05) [Hz]	effect on firing rate (spike frequency) of dopaminergic neurons, in words ([3]; wild type (TAAR1^+/+) mice)
C[C@H](N)Cc1ccccc1 [d-amphetamine]	moved significantly more than wild type littermates; also recorded: significantly higher	decreased	2.3	2.3 fold and 2.4 fold	135	11	4.9	2.5	significantly decreased	only a marginal decrease	No significant changes	remained unchanged; also recorded: not in their TAAR1^+/+ littermates	–	–	–
NCCc1ccc(O)cc1 [p-tyramine]	–	–	–	–	–	–	–	–	–	–	–	–	0.63±0.04	16.57±1.35	significant decrease; also recorded: decreases the firing rate
